# Experimental data taken from the C3SDB collision cross section collection.
# Details: [M+H]+; instrument: TW; calibrated with polyalanine and drug standards
row,Compound,collision cross section (N2)
1,Cc1c(C(N)=O)cc([N+](=O)[O-])cc1[N+](=O)[O-] [DINITOLMIDE],143.7 Å²
2,CCCCCCCCCc1ccc(OCCOCCOCCOCCOCCOCCOCCOCCOCCO)cc1 [NONOXYNOL-9],245.8 Å²
3,CC(=O)O[C@@H]1C[C@H]2C(C)(C)C(=O)C=C[C@]2(C)[C@H]2CC[C@@]3(C)[C@H](c4ccoc4)OC(=O)[C@H]4O[C@]43[C@@]21C [GEDUNIN],205.7 Å²
4,C[C@]12CC[C@H]3[C@@H](CCC4=CC(=O)CC[C@@]43C)[C@@H]1CC[C@H]2O [EPITESTOSTERONE],170.7 Å²
5,CC(=O)[C@H]1CC[C@H]2[C@@H]3CCC4=CC(=O)CC[C@]4(C)[C@H]3C(OC(=O)CCC(=O)O)C[C@]12C (stereo partly drawn) [11alpha-HYDROXYPROGESTERONE HEMISUCCINATE],201.8 Å²
6,CC(=O)O[C@H]1CC[C@@]2(C)[C@@H](CC[C@@H]3[C@@H]2CC(=O)[C@]2(C)[C@@H]4[C@H](C[C@@H]32)O[C@]2(CC[C@@H](C)CO2)[C@H]4C)C1 [HECOGENIN ACETATE],223.4 Å²
7,CC(C)(O/N=C(\C(=O)N[C@@H]1C(=O)N2C(C(=O)[O-])=C(C[n+]3ccccc3)CS[C@H]12)c1csc(N)n1)C(=O)O [CEFTAZIDIME],218.2 Å²
8,Cc1ncc([N+](=O)[O-])n1CC(C)O (stereo not given) [SECNIDAZOLE],135.2 Å²
9,Cc1occc(=O)c1O [LARIXINIC ACID],117.7 Å²
10,CC(=O)OCC(=O)[C@@]12OC(C)(C)O[C@@H]1C[C@H]1[C@@H]3C[C@H](F)C4=CC(=O)C=C[C@]4(C)[C@@]3(F)[C@@H](O)C[C@@]12C [FLUOCINONIDE],229.9 Å²
11,Cc1cc(O)cc(=O)o1 [4-HYDROXY-6-METHYLPYRAN-2-ONE],119.8 Å²
12,"O=c1cc(-c2ccc(O)cc2)oc2ccc(O)cc12 [6,4'-DIHYDROXYFLAVONE]",152.7 Å²
13,CCn1cc(C(=O)O)c(=O)c2cc3c(cc21)OCO3 [OXOLINIC ACID],149.1 Å²
14,CC1(C)O[C@@H]2C[C@H]3[C@@H]4C[C@H](F)C5=CC(=O)CC[C@]5(C)[C@H]4[C@@H](O)C[C@]3(C)[C@]2(C(=O)CO)O1 [FLURANDRENOLIDE],201.2 Å²
15,CC(=O)O[C@H]1C[C@@H](OC(C)=O)C(C)(C)C2C[C@@H](OC(C)=O)[C@@]3(C)C4=CC(=O)O[C@@H](c5ccoc5)[C@]4(C)CCC3[C@]21C (stereo not given in full) [DEOXYKHIVORIN],224.9 Å²
16,NCC1(CC(=O)O)CCCCC1 [GABAPENTIN],138.6 Å²
17,C[C@H]1[C@H]2CC[C@H]3[C@@H]4CC=C5C[C@@H](N(C)C)CC[C@]5(C)[C@H]4CC[C@]23CN1C [CONESSINE],195.4 Å²
18,O=C(O)[C@@H]1[C@H]2C[C@H]3c4[nH]c5ccccc5c4CCN3C[C@@H]2CC[C@@H]1O [YOHIMBIC ACID],181.7 Å²
19,CN(C)C(=S)SSC(=S)N(C)C [THIRAM],148.4 Å²
20,COc1ccc2c(c1)=NC1=C(C)NCCC=21 [HARMALINE],146.2 Å²
21,C[C@@H]1O[C@@H](O[C@H]2CC[C@]3(C=O)[C@H]4CC[C@]5(C)[C@@H](C6=CC(=O)OC6)CC[C@]5(O)[C@@H]4CC[C@]3(O)C2)[C@H](O)[C@H](O)[C@H]1O [CONVALLATOXIN],238.1 Å²
22,CCC(=O)O[C@]1(C(=O)CCl)[C@@H](C)C[C@H]2[C@@H]3CCC4=CC(=O)C=C[C@]4(C)[C@@]3(F)[C@@H](O)C[C@@]21C [CLOBETASOL PROPIONATE],205.1 Å²
23,C#C[C@]1(OC(C)=O)CC[C@H]2[C@@H]3CCC4=CC(=O)CC[C@@H]4[C@H]3CC[C@@]21C [NORETHINDRONE ACETATE],186.3 Å²
24,C[C@@H]1C[C@H]2[C@@H]3CCC4=CC(=O)C=C[C@]4(C)[C@@]3(F)[C@@H](O)C[C@]2(C)[C@@]1(O)C(=O)CO [DEXAMETHASONE],187.9 Å²

# More lines, now with the values ahead:
row,collision cross section (N2),Compound
1,154.2 Å²,CC1=CC(=O)C2=C(C)CC[C@@H]3[C@H](OC(=O)[C@H]3C)[C@@H]12 [LEUCODIN]
2,169.8 Å²,COc1cc(OC)c2c(=O)c(-c3ccc4c(c3)OCO4)coc2c1 [DERRUSTONE]
3,155.6 Å²,Cc1c(Cl)cccc1Nc1ccccc1C(=O)O [TOLFENAMIC ACID]
4,169.5 Å²,CCN(Cc1ccncc1)C(=O)C(CO)c1ccccc1 (stereo not given) [TROPICAMIDE]
5,176.1 Å²,COc1cc(/C=C/C(=O)N2CCC=CC2=O)cc(OC)c1OC [PIPLARTINE]
6,181.9 Å²,CCOC(=O)C1=C(C)NC(C)=C(C(=O)OC)C1c1cccc([N+](=O)[O-])c1 (stereo not given) [NITRENDIPINE]
7,170 Å²,Nc1ccc(S(=O)(=O)Nc2ccnn2-c2ccccc2)cc1 [SULFAPHENAZOLE]
8,134.4 Å²,"Cc1cc(=O)oc2cc(O)cc(O)c12 [5,7-DIHYDROXY-4-METHYLCOUMARIN]"
9,162.5 Å²,CCCN(CCC)CCc1cccc2c1CC(=O)N2 [ROPINIROLE]
10,194.1 Å²,CCCCC[C@H](CC(=O)NO)C(=O)N[C@H](C(=O)N1CCC[C@H]1CO)C(C)C [ACTINONIN]
11,198.2 Å²,C=C1C[C@H]2[C@@H]3C=C(C)C4=CC(=O)CC[C@]4(C)[C@H]3CC[C@]2(C)[C@@]1(OC(C)=O)C(C)=O [MELENGESTROL ACETATE]
12,152.1 Å²,COc1ccc(-c2cc(=O)c3ccccc3o2)cc1 [4'-METHOXYFLAVONE]
13,128.3 Å²,NC(=O)NC(=O)Cc1ccccc1 [PHENACEMIDE]
14,221.3 Å²,NC(=NCCCCCCN=C(N)/N=C(\N)Nc1ccc(Cl)cc1)/N=C(\N)Nc1ccc(Cl)cc1 [CHLORHEXIDINE]
15,163 Å²,COc1ccc(-c2cc(=O)c3c(O)cc(OC)cc3o2)cc1 [APIGENIN DIMETHYL ETHER]
16,238.8 Å²,C=Cc1c(C)c2cc3[nH]c(cc4nc(cc5nc(cc1[nH]2)C(C)=C5CCC(=O)O)C(CCC(=O)O)=C4C)c(C)c3C=C [PROTOPORPHYRIN IX]
17,220 Å²,CC1=C(C/C=C(\C)CCC[C@H](C)CCC[C@H](C)CCCC(C)C)C(=O)c2ccccc2C1=O [PHYTONADIONE]
18,186.6 Å²,COc1ccc(-c2cc(=O)c3c(O)c(OC)c(OC)c(OC)c3o2)cc1OC [DEMETHYLNOBILETIN]
19,186.6 Å²,N#Cc1ccc2c(c1)N(CCCN1CCC(O)CC1)c1ccccc1S2 [PERICIAZINE]

# Same assay, conditions: [M+Na]+; instrument: TW; calibrated with polyalanine and drug standards
row,collision cross section (N2),Compound
1,166.6 Å²,CC(=O)N[C@H]1[C@H]([C@H](O)[C@H](O)CO)O[C@](O)(C(=O)O)C[C@@H]1O [N-ACETYLNEURAMIC ACID]
2,199.1 Å²,COC(=O)CC[C@@H](C)[C@H]1CC[C@H]2[C@@H]3CC[C@@H]4C[C@H](O)CC[C@]4(C)[C@H]3C[C@H](O)[C@]12C [METHYL DEOXYCHOLATE]
